Results as given in publication PMC6479349, “Derivatives of 3-Aminopyrazine-2-carboxamides: Synthesis, Antimicrobial Evaluation, and in Vitro Cytotoxicity” (Molecules, 2019).
≈ marks a conversion by molar mass, not a printed value. Where “and” joins values, the source holds several entries; their conditions need not be identical. Identical values can stand only once. Like-named read-outs stand apart in the source and are kept apart here.

Legend:
[1] = test system: M. kansasii CNCTC My 235/80; assay: Antimycobacterial microdilution broth MIC (Alamar Blue); type: cell-based, Mycobacterium kansasii; settings: Mycobacterium kansasii
tested bacterial strains = assay: Antibacterial microdilution broth screening, strain not specified; settings: read-out: MIC against the tested strains (antibacterial)
[2] = Lipophilicity by reverse phase HPLC (log k); settings: RP-HPLC C18, MeOH 70% / H2O 30%, 30 °C
Experimental: The mobile phase consisted of MeOH (HPLC grade, 70%) and H2O (HPLC-Milli-Q Grade, 30%). The flow rate was 1.0 mL/min, samples were injected in a volume of 20 µL, and the column temperature was 30 °C. Detection and monitoring wavelength were 210 nm and 270 nm, respectively. Retention times (Rt) were measured in minutes. The dead time of the system (Dt) was determined as the retention time of the KI methanolic solution. Capacity factors k for individual compounds were calculated according to the formula k = (Rt – Dt)/Dt. Capacity factor k was converted to log scale and (log k) and used as a measure of lipophilicity.

[3] = test system: Trichophyton interdigitale CCM 8377; assay: Antifungal microdilution broth MIC; settings: Trichophyton interdigitale, CCM8377, 72 h
[4] = test system: Mycobacterium smegmatis DSM 43465; assay: Antimycobacterial microdilution broth panel MIC (resazurin); type: cell-based
[5] = test system: Mycobacterium tuberculosis H37Rv; assay: Antimycobacterial microdilution broth MIC (Alamar Blue); type: cell-based
[6] = In vitro cytotoxicity, CellTiter 96 Aqueous One; settings: human
[7] = test system: Staphylococcus epidermidis 112-2016; assay: Antibacterial microdilution broth MIC
[8] = test system: Staphylococcus aureus methicillin resistant CCM 4750; assay: Antibacterial microdilution broth MIC
[9] = test system: Staphylococcus aureus CCM 4223; assay: Antibacterial microdilution broth MIC
[10] = test system: Mycobacterium aurum DSM 43999; assay: Antimycobacterial microdilution broth panel MIC (resazurin); type: cell-based; settings: Mycolicibacterium aurum, DSM43999
C. parapsilosis CCM 8260 = assay: Antifungal microdilution broth MIC; settings: Lodderomyces parapsilosis, CCM8260, 48 h, read-out: MIC C. parapsilosis (standards)
[11] = test system: Aspergillus flavus CCM 8363; assay: Antifungal microdilution broth MIC; settings: CCM8363, 48 h, read-out: MIC Aspergillus flavus (standards)
[12] = test system: Lichtheimia corymbifera CCM 8077; assay: Antifungal microdilution broth MIC; settings: CCM8077, 48 h, read-out: MIC Lichtheimia corymbifera (standards)
C. krusei CCM 8271 = assay: Antifungal microdilution broth MIC; settings: Pichia kudriavzevii, CCM8271, 48 h, read-out: MIC C. krusei (standards)
C. tropicalis CCM 8264 = assay: Antifungal microdilution broth MIC; settings: Candida tropicalis, CCM8264, 48 h, read-out: MIC C. tropicalis (standards)
[13] = test system: Klebsiella pneumoniae 64-2016; assay: Antibacterial microdilution broth MIC; settings: Klebsiella pneumoniae, 642016, 48 h, read-out: MIC Klebsiella pneumonia (standards)
[14] = test system: Serratia marcescens 62-2016; assay: Antibacterial microdilution broth MIC; settings: Serratia marcescens, 622016, 48 h, read-out: MIC Serratia marcescens (standards)
[15] = test system: Enterococcus faecalis CCM 4224; assay: Antibacterial microdilution broth MIC; settings: CCM4224, 48 h, read-out: MIC Enterococcus faecalis (standards)
[16] = test system: Pseudomonas aeruginosa CCM 3955; assay: Antibacterial microdilution broth MIC; settings: CCM3955, 48 h, read-out: MIC Pseudomonas aeruginosa (standards)
[17] = test system: Escherichia coli CCM 3954; assay: Antibacterial microdilution broth MIC; settings: CCM3954, 48 h, read-out: MIC Escherichia coli (standards)
[18] = Mycolicibacterium smegmatis, DSM43465
[19] = Mycolicibacterium smegmatis, DSM43465, value in parentheses
[20] = Mycobacterium tuberculosis, H37RV, M. tuberculosis H37Rv, value in parentheses
[21] = Mycobacterium tuberculosis, H37RV, pH 6.6, M. tuberculosis H37Rv, Middlebrook 7H9 pH 6.6
[22] = Staphylococcus epidermidis, 1122016, 48 h, read-out: MIC Staphylococcus epidermidis (standards)
[23] = CCM4750, 48 h, read-out: MIC Staphylococcus aureus methicillin resistant (standards)
[24] = CCM4223, 48 h, read-out: MIC Staphylococcus aureus (standards)

With `CCCCCCCCNC(=O)c1nccnc1N` [Compound 12, 3-Amino-N-octylpyrazine-2-carboxamide] the MIC [1] was 25 µg/mL and 100 µM, the MIC (tested bacterial strains) was 62.5 µM (≈ 15.6 µg/mL) and the log k [2] was 1.057. For the same compound, the MIC ([3]; read-out: MIC72h TI) was 250 µM, the MIC [4, 18] was 62.5 µg/mL and the MIC [4, 19] was 250 µM. For the same compound, the MIC ([4]; value in parentheses) was 249.7 µM, the MIC ([5]; M. tuberculosis H37Rv, value in parentheses) was 99.9 µM and the MIC [5, 20] was 100 µM. The MIC [5, 21] was 25 µg/mL.

Work on `Cc1ccc(C)c(NC(=O)c2nccnc2N)c1` [Compound 15, 3-Amino-N-(2,5-dimethylphenyl)pyrazine-2-carboxamide] yielded a log k [2] of 0.778, an MIC [4, 18] of over 500 µg/mL and an MIC [4, 19] of over 2060 µM. For the same compound, the MIC [5, 20] was over 413 µM and the MIC [5, 21] was over 100 µg/mL.

Work on `CCc1ccc(NC(=O)c2nccnc2N)cc1` [Compound 16, 3-Amino-N-(4-ethylphenyl)pyrazine-2-carboxamide] yielded a log k [2] of 0.623, an IC50 at 24 h [6] of over 250 µM and an MIC [4, 18] of over 500 µg/mL. For the same compound, the MIC [4, 19] was over 2060 µM, the MIC [5, 20] was over 413 µM and the MIC [5, 21] was over 100 µg/mL.

`Nc1nccnc1C(=O)Nc1ccc(F)cc1F` [Compound 18, 3-Amino-N-(2,4-difluorophenyl)pyrazine-2-carboxamide] gave a log k [2] of 0.422, an MIC [4, 18] of over 500 µg/mL and an MIC [4, 19] of over 2000 µM. The MIC [5, 20] was over 400 µM and the MIC [5, 21] was over 100 µg/mL.

Work on `Nc1nccnc1C(=O)Nc1ccc(Cl)c(Cl)c1` [Compound 19, 3-Amino-N-(3,4-dichlorophenyl)pyrazine-2-carboxamide] yielded a log k [2] of 0.778, an MIC [4, 18] of over 500 µg/mL and an MIC [4, 19] of over 1770 µM. The MIC [5, 20] was 177 µM and the MIC [5, 21] was 50 µg/mL.

`Nc1nccnc1C(=O)Nc1ccc(C(F)(F)F)cc1` [Compound 20, 3-Amino-N-(4-(trifluoromethyl)phenyl)pyrazine-2-carboxamide] gave a log k [2] of 0.525, an MIC ([7]; Staphylococcus epidermidis, 1122016, read-out: MIC S. epidermidis) of 62.5 µM and an IC50 at 24 h [6] of 41.4 µM. For the same compound, the MIC ([8]; CCM4750|MRSA, read-out: MIC methicillin resistant S. aureus (MRSA)) was 62.5 µM, the MIC [4, 18] was 31.2 µg/mL and the MIC [4, 19] was 111 µM. For the same compound, the MIC ([4]; value in parentheses) was 110.7 µM, the MIC [5, 20] was 177 µM and the MIC [5, 21] was 50 µg/mL. For the same compound, the MIC ([9]; CCM4223, read-out: MIC Staphylococcus aureus) was 31.2 µM.

For `NC(=O)c1cnccn1` [PZA, Pyrazinamide, reference compound], the MIC [4, 18] was over 100 µg/mL and the MIC [5, 21] was 100 µg/mL.

Compound `CO[C@H]1/C=C/O[C@@]2(C)Oc3c(C)c(O)c4c(O)c(c(/C=N/N5CCN(C)CC5)c(O)c4c3C2=O)NC(=O)/C(C)=C\C=C\[C@H](C)[C@H](O)[C@@H](C)[C@@H](O)[C@@H](C)[C@H](OC(C)=O)[C@@H]1C` [RIF, rifampicin, reference compound] has an MIC [4, 18] of 12.5 to 25 µg/mL and an MIC [10] of 0.78 to 1.56 µg/mL (≈ 0.948 to 1.9 µM).

Compound `C[C@@H]1[C@H](O)[C@@H](C)/C=C/C=C/C=C/C=C/C=C/C=C/C=C/[C@H](O[C@@H]2O[C@H](C)[C@@H](O)[C@H](N)[C@@H]2O)C[C@@H]2O[C@](O)(C[C@@H](O)C[C@@H](O)[C@H](O)CC[C@@H](O)C[C@@H](O)CC(=O)O[C@H]1C)C[C@H](O)[C@H]2C(=O)O` [amphotericin B] has an MIC ([3]; read-out: MIC Trichophyton interdigitale (standards)) of 2 µg/mL, an MIC (C. parapsilosis CCM 8260) of 0.5 µg/mL (≈ 0.541 µM) and an MIC [11] of 8 µg/mL (≈ 8.66 µM). The MIC [12] was 0.5 µg/mL (≈ 0.541 µM), the MIC (C. krusei CCM 8271) was 1 µg/mL (≈ 1.08 µM) and the MIC (C. tropicalis CCM 8264) was 1 µg/mL (≈ 1.08 µM).

For `O=C(O)c1cn(C2CC2)c2cc(N3CCNCC3)c(F)cc2c1=O` [ciprofloxacin], the MIC [13] was over 1.02 µg/mL, the MIC [7, 22] was over 1.02 µg/mL and the MIC [8, 23] was 0.128 µg/mL. It also gave an MIC [14] of 0.256 µg/mL (≈ 0.773 µM), an MIC [15] of 0.512 µg/mL (≈ 1.55 µM) and an MIC [16] of 0.128 µg/mL (≈ 0.386 µM). For the same compound, the MIC [4, 18] was 0.0625 to 0.125 µg/mL, the MIC [10] was 0.00781 to 0.0156 µg/mL (≈ 0.0236 to 0.0472 µM) and the MIC [9, 24] was 0.128 to 0.256 µg/mL. It also gave an MIC [17] of 0.008 µg/mL (≈ 0.0241 µM).

`CNC(C)C1CCC(N)C(OC2C(N)CC(N)C(OC3OCC(C)(O)C(NC)C3O)C2O)O1` (stereo not drawn) [gentamicin] gave an MIC [13] of over 8 µg/mL, an MIC [7, 22] of over 8 µg/mL and an MIC [8, 23] of 16 to 32 µg/mL. The MIC [14] was 2 µg/mL (≈ 4.19 µM), the MIC [15] was 8 µg/mL (≈ 16.8 µM) and the MIC [16] was 0.5 µg/mL (≈ 1.05 µM). For the same compound, the MIC [9, 24] was 1 µg/mL and the MIC [17] was 1 to 2 µg/mL (≈ 2.09 to 4.19 µM).
